Test results from patent US20200296971A1, “COMPOSITIONS AND METHODS FOR DISPERSING BIOFILMS” (Texas State University, priority 2016, published 2020).
Where two headings read alike, the source gives them in different places.

Assays:
P. aeruginosa biofilms [1] = tested on: P. aeruginosa biofilms
Method: P. aeruginosa was grown as planktonic and biofilm populations in different growth media for 48-120 h. Antimicrobial agents were tested in different boric acid concentrations. Boric acid controls lacked the antimicrobial compounds. Initial planktonic growth and dispersion were measured as described previously. After dispersion, the disinfectant and boric acid compounds were removed, replaced with sterile growth medium, and growth monitored by being placed into the plate reader and monitoring an increase of turbidity over an 18-36 h period.
Experiments were conducted in order to determine the ability of boric acid to enhance the antimicrobial action of betadine (poly(vinyl pyrrolidone) iodine). Betadine is commonly used as a disinfectant in clinical environments and the low concentration used (0.02% (w/v)) was chosen based on previous work as it has partial biofilm effectiveness. P. aeruginosa biofilms were grown for 2 and 5 days suspended above a shaking water bath. […] The media used consisted of artificial urine and artificial urine supplemented with 2 mM glucose (reflecting average urine chemistry in normal and diabetic patients). Davis minimal media (MM) and Luria-Bertani broth (LB) were used as representative minimal and rich media. Different biofilm incubation times were used as it is known that biofilm susceptibility to dispersion can increase with biofilm age.
The testing protocol involved the use of a 96-well microtiter plate and a programmable plate reader (Biotek Instruments). The plate reader was programmed for incubation at 37 C and would agitate the plate for 15 seconds prior to taking an absorbance reading of each well. Microtiter wells were partially filled (200 μl) with sterile growth media, then were inoculated with 2 μl of an overnight bacterial culture suspension. For each media and disinfection combination there were a minimum of two replicates as well as uninoculated wells (media without bacteria) to monitor contamination. The microtiter plates were covered with a lid and the sides sealed with Parafilm™ to prevent contamination. Plates were placed on a rack (above the water level) in a water bath, and incubated with shaking (150 rpm) for 2 and 5 days. Testing consisted of removing a plate from the incubator, placing in the plate reader for 30 minutes (allowing for evaporation of humidity) and reading the turbidity (evidence of planktonic growth). Culture media and planktonic cells were removed from the wells and 200-μl dispersant solution containing a mixture of boric acid and 0.02% (w/v) betadine suspended in PBS. Betadine was absent in the control samples. The microtiter plate was placed in the plate reader for 30 minutes (allowing for evaporation of humidity) and turbidity measurements taken (increased turbidity was evidence of biofilm dispersion). To measure biofilm survival, the plates were removed from the plate reader, the dispersant liquid removed, and replaced with sterile LB growth media. The plates were then placed in the plate reader and growth measured (increased turbidity) over a minimum 18 h period.

P. aeruginosa PAO-1 = details: Luria Broth, R2A broth, Davis minimal media with 0, 0.5, 1.0, 1.5% boric acid, FIG. 3
Method: (§1) In most experiments, cultures were grown in 96-well polystyrene microtiter plates as this allowed different growth media and replicates to be tested using an automated plate reader. Growth of suspended (planktonic) bacteria could be measured by the turbidity in the individual microtiter plate chambers (referred to as wells). […] To test for dispersion, the planktonic populations and growth media were removed and replaced with water containing various concentrations of the test compound. Dispersion was observed by an increase in turbidity (due to release of bacteria from biofilms) over 20 minutes.

[2] = tested on: Biofilms from a nearby river; details: river biofilm on stone, 5 minutes exposure, tested 0%, 0.25%, 0.5%, 1%, 2%, 3%
Method: Biofilms are described on the surface of small (15 mm×15 mm) stone.
Biofilms were exposed to various concentrations of Boric Acid. The concentrations used were 0%, 0.25%, 0.5%, 1%, 2%, 3%.
One stone was used per concentration and was measured and weighed for similarity. Each stone was rinsed with sterile H2O to remove any planktonic (not attached to biofilm) bacteria. Each stone was exposed to a known concentration for a time period of 5 minutes and then removed and placed into a separate vial containing 9 ml of sterile water. The vial with after treatment stone in sterile water was then sonicated for 60 seconds to remove any remaining biofilm to be quantified. Sonication served as a mechanical removal for any remaining biofilm.
Media was then placed in 30 C for 48 hrs and growth was quantified through counting colonies.

P. aeruginosa biofilms [3] = details: 24 h at 37 C
Method: as §1
Experiments were conducted in order to examine the ability of P. aeruginosa biofilms grown on different growth media to be dispersed by boric acid. Here, bacteria were grown for 24 h at 37 C on an orbital shaking plate in a microtiter plate. The media was removed and the adherent P. aeruginosa biofilms were exposed to boric acid, placed in a plate reader and turbidity measured following agitation.

[4] = tested on: monoculture biofilm of Chromobacterium violaceum; details: 0.5% boric acid, 2 hours, lightly shaken
Method: Test of application: A 0.5% boric acid was injected into a bioreactor containing a monoculture biofilm of Chromobacterium violaceum. The bioreactor was left for 2 hours and lightly shaken.

river water biofilm = details: 0.5% boric acid, 60 seconds, FIG. 2B
Method: To visualize biofilm dispersion a water sample from the sampling site was collected. A microscope slide was placed in 30 ml of river water to cultivate a biofilm. The biofilm was then viewed under a dark field microscope and a 0.5% concentration of boric acid was applied and left for 60 seconds. FIG. 2A depicts a photograph of a microscope slide of river water with biofilms.

other organisms = details: FIG. 3
P. aeruginosa biofilms [5] = details: FIG. 4, line B
From the text: To further study the mechanisms of boric acid-induced dispersion a collaboration with Dr. Karin Sauer, Binghamton University was initiated. […] FIG. 4 depicts a bar graph summarizing the results of experiments directed towards determining the ability of boric acid to disperse P. aeruginosa biofilms. The line designated as B is boric acid, D represents a positive control for dispersion and E a negative control.

## OB(O)O [boric acid]
P. aeruginosa biofilms [1]; 5-day old PAO-1 biofilms grown in artificial urine, FIGS. 13 and 14, preliminary
  enhancement of betadine activity against older biofilms: does enhance the activity of betadine
P. aeruginosa biofilms [1]; 2 day old biofilms, artificial urine, boric acid without betadine, FIG. 6
  regrowth after treatment: growth did occur
P. aeruginosa biofilms [1]; artificial urine with glucose, FIG. 7
  effect of boric acid on betadine action: no effect
P. aeruginosa biofilms [1]; at the concentrations listed, preliminary results
  boric acid-induced toxicity: low level of boric acid-induced toxicity
P. aeruginosa biofilms [1]; two-day biofilms, Davis Minimal Media and Luria-Bertani broth, FIGS. 9 and 11
  betadine activity against biofilms in the presence of boric acid: enhanced
P. aeruginosa biofilms [1]; two-day biofilms, Davis Minimal Media and Luria-Bertani broth, FIGS. 10 and 12
  killing by boric acid treatment alone: did not kill P. aeruginosa
P. aeruginosa PAO-1
  ability to grow in the presence of boric acid: grew in the presence of boric acid
[2]
  concentration producing the highest percent release of biofilm: 0.5 % (w/v)
P. aeruginosa biofilms [3]; Davis Minimal Media-grown biofilms
  boric acid concentration at which increased turbidity (evidence of dispersion) was seen: 1.0%
P. aeruginosa biofilms [3]; LB-grown biofilms
  dispersion (increased turbidity): no observable dispersion
P. aeruginosa biofilms [3]; R2A-grown biofilms
  boric acid concentration at which increased turbidity (evidence of dispersion) was seen: 0.5%
[4]
  removal of visible biofilm from bioreactor: All visible biofilm was removed
River water biofilm
  biofilm dispersion seen under dark field microscope: dispersed
Other organisms
  concentration at which bacterial growth began to be inhibited: ≥ 1.5 % (w/v)
P. aeruginosa biofilms [5]
  ability to disperse biofilms in flow cell: verified the ability of boric acid to disperse P. aeruginosa biofilms
